Where a chain is given by its changes, count along the chain named.
Assays:
[1] = target: T1, Dahl R Dear S44P/M74T variant (Rattus norvegicus, UniProt D3ZGZ6, F4L/M74T/S44P); experiment: West-western blot of kidney and Cos1 cell membranes (labeled ligand on protein blot); type: binding; conditions: Dahl R kidney membranes (Kid-R) and Cos1-R membranes
T1 construct: expressed in transfected cells; host or cells: Cos1 cells (membranes), pcDNA expression vector
T1 sequence (D3ZGZ6 1-127 F4L/S44P/M74T): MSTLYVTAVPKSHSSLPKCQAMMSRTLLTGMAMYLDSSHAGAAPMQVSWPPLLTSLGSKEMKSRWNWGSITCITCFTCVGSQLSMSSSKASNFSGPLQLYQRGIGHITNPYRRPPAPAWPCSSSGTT
Procedure: (§1) A polyclonal rabbit antipeptide antibody raised against the synthetic peptide P51LLTSLGSKE60 (SEQ. ID. NO. 7) was utilized for western blot analysis (1). Plasma membranes (40 μg protein/lane) were subjected to 12.5% SDS-PAGE and the separated proteins electro-transferred onto PVDF membranes which were incubated with blocking buffer (0.3% Tween-20, 5% non-fat milk, 137 mM NaCl, 2.7 mM KCl, 8.1 mM Na2HPO4, and 1.5 mM KH2PO4, pH7.4) for 2 hr at room temperature, and then incubated with primary antibody (1:500) for 16 hr at 4° C. The PVDF membranes were then sequentially incubated with biotinylated goat anti-rabbit IgG followed by immunostaining with horseradish peroxidase-linked streptavidin. To confirm the interaction between Dear and ligands, we performed west-western blot analysis (62). Briefly, protein blots of kidney and COS-1 cell membranes were incubated with radioligands (0.5 μCi in 10 ml) in buffer A at 37° C. for 16 hr. PVDF membranes were then washed three times for 15 min with buffer A at 37° C. and exposed to X-ray film at −80° C. for 1-3 days.

[2] = target: T2, Dahl S Dear S44/M74 variant (Rattus norvegicus, UniProt D3ZGZ6, F4L); experiment: as above; type: binding; conditions: Dahl S kidney membranes (Kid-S) and Cos1-S membranes
T2 construct: expressed in transfected cells; host or cells: Cos1 cells (membranes), pcDNA expression vector
T2 sequence (D3ZGZ6 1-127 F4L): T1 sequence (D3ZGZ6 1-127 F4L/S44P/M74T) with P44S, T74M
Procedure: as §1

[3] = target: T2, Dahl S Dear S44/M74 variant; experiment: Radioligand binding to Dahl S Dear expressed in Cos1 cell membranes; conditions: for hormone binding, in words: Dahl S Dear transiently expressed in Cos1 cells; for Bmax / h (Hill coefficient): S44/M74 variant, mean ± s.e.m.
Procedure: (§2) The Dahl S and Dahl R Dear cDNAs were subcloned directionally (5′ to 3′) into the pcDNA (+) expression vector (Invitrogen, Carlsbad, Calif.) and transiently expressed in Cos1 cells (ATCC). Cos1 cells were transfected with the expression vectors via lipofectin-mediated gene transfer and cell membranes were isolated 72 hr post-transfection for hormone binding. Rat kidney membranes were prepared essentially as described (42). COS-1 cell membranes were isolated as described (36). Briefly, cells were washed twice in phosphate-buffered saline and homogenized in 10-fold ice-cold buffer (0.25 M sucrose, 1 mM EDTA, 50 μg/ml aprotinin, 10 μg/ml leupeptin, 100 μM phenylmethylsulfonyl fluoride, 25 mM Imidazol/HCl, pH 7.4). The homogenate was centrifuged at 5,000 g for 15 min and the pellet was discarded. The supernatant was then centrifuged at 27,500 g for 30 min and the resulting pellet was washed twice in ice-cold suspension buffer (5 mM MgCl2, 0.2 mM EDTA, 50 mM Hepes, pH 7.4). The final pellet was resuspended into the appropriate assay buffer and quickly frozen in liquid nitrogen. The membrane preparations were store at −80° C. until use. Protein concentrations of the membranes were determined by BCA protein assay kit (PIERCE).
(§3) Binding of [^125I]Tyr^4-angiotensin II and [^125I]Tyr^13-endothelin-1 to COS-1 membranes was performed by a rapid filtration method (32, 50). Briefly, [^125I]Tyr^4-angiotensin II ([…]) or [^125I]Tyr^13-endothelin-1 (0.045˜1.46 nM) was incubated with membranes (100 μg) for 20 min at 37° C. in 100 μl buffer A (5 mM MgCl2, 0.2 mM EDTA, 10 mg/ml BSA, 10 mM Hepes, pH7.4). Binding reactions were terminated by the addition of 1 ml ice-cold buffer A and immediately filtered through a Whatman GF/C filter (presoaked overnight at 4° C. in 10 mg/ml BSA) and subsequently washed with 15 ml ice-cold buffer A. Specific binding was determined as the difference between the total radioactivity bound to membranes and the radioactivity bound to blanks containing 1 μM AngII or 1 μM ET-1. The dissociation constant (Kd) and maximum ligand-binding sites (Bmax) were determined using Hill plot analysis (55). Hill coefficient values (h) were calculated from the relationship ln [B/(Bmax−B)]=h ln [free Radioligand]−ln Kd. An F test (P<0.05) was used to determine whether the saturation binding curves best fitted one or two independent binding sites. The data were best fit by two affinity states determined by Scatchard plot analysis; KH and KL designate the Kd for high- and low-affinity states of the receptor, respectively (44). Most results are expressed as the mean±SE (standard error) from three to five independent experiments.

[4] = target: T1, Dahl R Dear S44P/M74T variant; experiment: Radioligand binding to Dahl R Dear expressed in Cos1 cell membranes; conditions: for hormone binding (direct radioligand binding), in words: Dahl R Dear transiently expressed in Cos1 cells
Procedure: as §2, §3

[5] = target: T3, mouse Dear (Mus musculus, UniProt Q2QKR2); experiment: Ligand binding to mouse Dear expressed in Cos-1 cells; conditions: mouse receptor polypeptide, data not shown
T3 construct: The mouse receptor polypeptide contains 127 amino acids showing 78 percent homology with the rat receptor; expressed in transfected cells; host or cells: Cos-1 cells (membranes)
T3 sequence (Q2QKR2 1-127): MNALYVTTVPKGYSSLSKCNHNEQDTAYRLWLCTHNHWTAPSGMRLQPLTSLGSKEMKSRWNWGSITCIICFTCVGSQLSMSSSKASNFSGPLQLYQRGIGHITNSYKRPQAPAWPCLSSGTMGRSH
Procedure: Mouse Dear cDNA was obtained by RT-PCR from C57BL/6 mouse kidney PolyA^+ RNA (forward primer, 5′-[…]-3′ (SEQ. ID. NO. 13); reverse primer, 5′-[…]-3′(SEQ. ID. NO. 14)), subcloned into the PT-vector system (Clontech, Palo Alto, Calif.) and then sequenced (GenBank accession no. DQ009865). RNA blot analysis was done as described (1) using PolyA^+ RNA (3 μg), γ-^32P end labeled anti-sense mouse Dear oligonucleotide (5′-[…]-3′(SEQ. ID. NO. 15)) as probe. Receptor expression studies, ^125I-ET-1-1 and ^125I-AngII binding to membranes were done as described (2).

[6] = [125I]Tyr13-Endothelin I, S44P/M74T variant, mean ± s.e.m.

| binding in west-western blot analysis [1] | binding in west-western blot analysis [2] | hormone binding, in words [3] | Bmax ([3]; [125I]Tyr4-Angiotensin II, Cos1 membranes) | h (Hill coefficient) ([3]; [125I]Tyr4-Angiotensin II) | hormone binding (direct radioligand binding), in words [4] | Bmax ([4]; [125I]Tyr4-Angiotensin II, S44P/M74T variant, Cos1 membranes) | increased affinity for ET-1, Dahl S variant compared to Dahl R variant ([3]; KH, S44/M74 vs Dahl R variant) | Bmax ([3]; [125I]Tyr13-Endothelin I) | h (Hill coefficient) ([3]; [125I]Tyr13-Endothelin I) | ligand binding, in words [5] | Bmax [4, 6] | h (Hill coefficient) [4, 6] | Structure (SMILES) |
| --- | --- | --- | --- | --- | --- | --- | --- | --- | --- | --- | --- | --- | --- |
| binding only to Dahl S kidney membranes | detects binding | binding both ET-1 and AngII | 23.6 ± 0.92 pmol/mg membrane protein | 2.63 ± 0.25 | do not exhibit AngII binding | no binding |  |  |  |  |  |  | CC[C@H](C)[C@H](NC(=O)[C@H](Cc1ccc(O)c(I)c1)NC(=O)[C@@H](NC(=O)[C@H](CCCNC(=N)N)NC(=O)[C@@H](N)CC(=O)O)C(C)C)C(=O)N[C@@H](Cc1c[nH]cn1)C(=O)N1CCC[C@H]1C(=O)N[C@@H](Cc1ccccc1)C(=O)O [[^125I]Tyr^4-Angiotensin II] |
| reveals binding | reveals binding | binding both ET-1 and AngII |  |  | exhibit normal ET-1 binding |  | 3 fold | 26.25 ± 1.29 pmol/mg membrane protein | 1.41 ± 0.12 | binds solely ET-1 | 20.21 ± 1.59 pmol/mg membrane protein | 1.45 ± 0.09 | CC[C@H](C)[C@H](NC(=O)[C@H](CC(=O)O)NC(=O)[C@H](CC(C)C)NC(=O)[C@H](Cc1c[nH]cn1)NC(=O)[C@@H]1CSSC[C@H](N)C(=O)N[C@@H](CO)C(=O)N[C@H]2CSSC[C@H](NC(=O)[C@H](CCC(=O)O)NC(=O)[C@H](CCCCN)NC(=O)[C@H](CC(=O)O)NC(=O)[C@H](CCSC)NC(=O)[C@H](CC(C)C)NC(=O)[C@H](CO)NC(=O)[C@H](CO)NC2=O)C(=O)N[C@@H](C(C)C)C(=O)N[C@@H](Cc2ccc(O)c(I)c2)C(=O)N[C@@H](Cc2ccccc2)C(=O)N1)C(=O)N[C@H](C(=O)N[C@@H](Cc1c[nH]c2ccccc12)C(=O)O)[C@@H](C)CC [[^125I]Tyr^13-Endothelin I] |
